US8134015B2, “Compound inhibiting in vivo phosphorous transport and medicine containing the same” (Kyowa Hakko Kirin Co., Ltd., priority 2003, dated 2012)

Legend:
[1] = target: T1, rat NaPi-2b (Rattus norvegicus, UniProt Q9JJ09); experiment: Sodium-dependent phosphate uptake of Xenopus oocytes which expressed NaPi-2b (32P); format: cell-based; details: Xenopus oocytes expressing rat NaPi-2b, 32P radioactive phosphorus; read-out: IC50 (phosphate uptake inhibitory activity)
T1 construct: expressed in transfected cells; host or cells: Xenopus oocytes injected with cRNA
T1 sequence (Q9JJ09 1-695): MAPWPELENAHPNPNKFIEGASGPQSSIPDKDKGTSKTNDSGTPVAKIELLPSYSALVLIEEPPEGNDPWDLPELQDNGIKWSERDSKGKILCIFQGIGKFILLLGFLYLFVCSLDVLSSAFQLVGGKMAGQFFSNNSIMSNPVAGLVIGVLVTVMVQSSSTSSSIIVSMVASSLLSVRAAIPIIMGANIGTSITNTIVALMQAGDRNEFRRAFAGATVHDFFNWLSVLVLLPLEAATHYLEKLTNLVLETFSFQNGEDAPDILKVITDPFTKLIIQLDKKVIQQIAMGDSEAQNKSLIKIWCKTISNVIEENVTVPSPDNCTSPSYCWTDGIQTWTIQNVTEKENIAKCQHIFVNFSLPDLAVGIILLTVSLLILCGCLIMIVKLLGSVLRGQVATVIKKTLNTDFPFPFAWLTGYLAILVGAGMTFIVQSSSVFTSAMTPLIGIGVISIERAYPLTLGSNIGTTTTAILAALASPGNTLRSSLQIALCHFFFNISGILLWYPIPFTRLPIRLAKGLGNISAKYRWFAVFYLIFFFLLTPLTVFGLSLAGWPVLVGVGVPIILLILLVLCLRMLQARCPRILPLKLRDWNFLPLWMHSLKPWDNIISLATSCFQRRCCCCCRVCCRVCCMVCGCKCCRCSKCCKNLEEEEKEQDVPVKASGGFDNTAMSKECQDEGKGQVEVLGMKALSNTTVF
Outline: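 Percent inhibition at 300 μM and 100 μM comes from the same inhibition curve of 32P uptake. Assay used oocytes expressing rat NaPi-2b after 2 days of culture.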

[2] = target: T2, human NaPi-2a (Homo sapiens, UniProt Q06495); experiment: Sodium-dependent phosphate uptake of Xenopus oocytes which expressed NaPi-2a (32P); format: cell-based; details: phosphate uptake, Xenopus oocytes expressing human NaPi-2a; five concentration levels
T2 construct: expressed in transfected cells
T2 sequence (Q06495 1-639): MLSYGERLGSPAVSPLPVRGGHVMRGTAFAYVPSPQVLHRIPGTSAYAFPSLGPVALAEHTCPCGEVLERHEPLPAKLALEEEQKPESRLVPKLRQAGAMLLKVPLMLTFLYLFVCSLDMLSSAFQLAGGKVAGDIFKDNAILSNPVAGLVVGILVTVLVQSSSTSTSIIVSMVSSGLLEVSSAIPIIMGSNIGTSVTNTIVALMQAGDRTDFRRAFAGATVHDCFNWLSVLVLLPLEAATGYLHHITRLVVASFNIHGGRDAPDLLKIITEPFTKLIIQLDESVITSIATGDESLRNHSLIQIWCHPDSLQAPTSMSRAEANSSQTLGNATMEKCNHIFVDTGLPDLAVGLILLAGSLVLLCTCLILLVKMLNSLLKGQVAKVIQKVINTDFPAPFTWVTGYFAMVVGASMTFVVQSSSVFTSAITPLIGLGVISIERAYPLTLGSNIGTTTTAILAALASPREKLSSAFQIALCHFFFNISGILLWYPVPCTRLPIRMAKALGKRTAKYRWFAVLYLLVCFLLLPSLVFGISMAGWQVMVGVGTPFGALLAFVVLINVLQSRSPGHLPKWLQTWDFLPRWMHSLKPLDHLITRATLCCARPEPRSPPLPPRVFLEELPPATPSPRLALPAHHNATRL
Description: Experiment of Sodium-Dependent Phosphate Uptake of Xenopus oocytes which Expressed NaPi-2a
In the test, a group with the addition of choline chloride (Choline Cl) was used as a negative control for nonspecific uptake, and PFA (phosphonoformic acid) was used as a positive control for phosphate transport inhibition.

Compound | IC50 [1] [µM] | IC50 [2] [µM]
Cc1ccc(/C=N/NC(=O)c2c(C)csc2NC(=O)c2cccc(CN(CCO)CCO)c2)cc1C [Compound 786, 3-{[Bis-(2-hydroxy-ethyl)-amino]-methyl}-N-[3-(3,4-dimethyl-benzylidene-hydrazinocarbonyl)-4-methyl-thiophen-2-yl]-benzamide] | 1.33 | < 3
Cc1ccc(/C=N/NC(=O)c2c(C)csc2NC(=O)c2cccc(CN(CCO)CCO)c2)cc1 [Compound 787, 3-{[Bis-(2-hydroxy-ethyl)-amino]-methyl}-N-[4-methyl-3-(4-methyl-benzylidene-hydrazinocarbonyl)-thiophen-2-yl]-benzamide] | 1.69 | < 3
Cc1csc(NC(=O)c2cccc(CN(CCO)CCO)c2)c1C(=O)N/N=C/c1ccc(F)cc1 [Compound 788, 3-{[Bis-(2-hydroxy-ethyl)-amino]-methyl}-N-[3-(4-fluoro-benzylidene-hydrazinocarbonyl)-4-methyl-thiophen-2-yl]-benzamide] | 2.04 | 6.64
Cc1csc(NC(=O)c2cccc(CN(CCO)CCO)c2)c1C(=O)N/N=C/c1cccc(F)c1 [Compound 789, 3-{[Bis-(2-hydroxy-ethyl)-amino]-methyl}-N-[3-(3-fluoro-benzylidene-hydrazinocarbonyl)-4-methyl-thiophen-2-yl]-benzamide] | 1.16 | 9.28
COc1ccc(/C=N/NC(=O)c2c(C)csc2NC(=O)c2cccc(CN(CCO)CCO)c2)cc1 [Compound 791, 3-{[Bis-(2-hydroxy-ethyl)-amino]-methyl}-N-[3-(4-methoxy-benzylidene-hydrazinocarbonyl)-4-methyl-thiophen-2-yl]-benzamide] | 5.5 | 6.7
Cc1ccc(/C=N/NC(=O)c2c(NC(=O)c3cccc(CN(CC(C)O)CC(C)O)c3)sc3ccccc23)cc1 (stereo not drawn) [Compound 793, 3-{[Bis-(2-hydroxy-propyl)-amino]-methyl}-N-[3-(4-methyl-benzylidene-hydrazinocarbonyl)-benzo[b]thiophen-2-yl]-benzamide] | 1.41 | 8.46
CC(O)CN(Cc1cccc(C(=O)Nc2sc3ccccc3c2C(=O)N/N=C/c2ccc(F)cc2)c1)CC(C)O (stereo not drawn) [Compound 794, 3-{[Bis-(2-hydroxy-propyl)-amino]-methyl}-N-[3-(4-fluoro-benzylidene-hydrazinocarbonyl)-benzo[b]thiophen-2-yl]-benzamide] | 0.97 | 9.57
CC(O)CN(Cc1cccc(C(=O)Nc2sc3ccccc3c2C(=O)N/N=C/c2cccc(F)c2)c1)CC(C)O (stereo not drawn) [Compound 795, 3-{[Bis-(2-hydroxy-propyl)-amino]-methyl}-N-[3-(3-fluoro-benzylidene-hydrazinocarbonyl)-benzo[b]thiophen-2-yl]-benzamide] | 1.92 | 8.52
O=C(Nc1sc2ccccc2c1C(=O)N/N=C/c1ccc(F)cc1)c1cccc(CN2CCC(CO)CC2)c1 [Compound 800, N-[3-(4-Fluoro-benzylidene-hydrazinocarbonyl)-benzo[b]thiophen-2-yl]-3-(4-hydroxymethyl-piperidin-1-ylmethyl)-benzamide] | 9.24 | 10
O=C(Nc1sc2ccccc2c1C(=O)N/N=C/c1cccc(F)c1)c1cccc(CN2CCC(CO)CC2)c1 [Compound 801, N-[3-(3-Fluoro-benzylidene-hydrazinocarbonyl)-benzo[b]thiophen-2-yl]-3-(4-hydroxymethyl-piperidin-1-ylmethyl)-benzamide] | 4.7 | 3.72
O=C(Nc1sc2ccccc2c1C(=O)N/N=C/c1ccc(Cl)c(C(F)(F)F)c1)c1cccc(CN2CCC(CO)CC2)c1 [Compound 802, N-[3-(4-Chloro-3-trifluoromethyl-benzylidene-hydrazinocarbonyl)-benzo[b]thiophen-2-yl]-3-(4-hydroxymethyl-piperidin-1-ylmethyl)-benzamide] | 1.2 | 5.96
CC(O)CN(Cc1cccc(C(=O)Nc2sc3c(c2C(=O)N/N=C/c2cccc(F)c2)CCC3)c1)CC(C)O (stereo not drawn) [Compound 806, 3-{[Bis-(2-hydroxy-propyl)-amino]-methyl}-N-[3-(3-fluoro-benzylidene-hydrazinocarbonyl)-5,6-dihydro-4H-cyclopenta[b]thiophen-2-yl]-benzamide] | 3.9 | 12.1
CC(O)CN(Cc1cccc(C(=O)Nc2sc3c(c2C(=O)N/N=C/c2ccc(F)cc2)CCC3)c1)CC(C)O (stereo not drawn) [Compound 807, 3-{[Bis-(2-hydroxy-propyl)-amino]-methyl}-N-[3-(4-fluoro-benzylidene-hydrazinocarbonyl)-5,6-dihydro-4H-cyclopenta[b]thiophen-2-yl]-benzamide] | < 1 | 9.07
CCN(CC)CCNCc1cccc(C(=O)Nc2sc3c(c2C(=O)N/N=C/c2ccc(C)c(C)c2)CCC3)c1 [Compound 810, 3-[(2-Diethylamino-ethylamino)-methyl]-N-[3-(3,4-dimethyl-benzylidene-hydrazinocarbonyl)-5,6-dihydro-4H-cyclopenta[b]-thiophen-2-yl]-benzamide] | 6.68 | 23.8
CCN(CC)CCNCc1cccc(C(=O)Nc2sc3c(c2C(=O)N/N=C/c2ccc(C)cc2)CCC3)c1 [Compound 811, 3-[(2-Diethylamino-ethylamino)-methyl]-N-[3-(4-methyl-benzylidene-hydrazinocarbonyl)-5,6-dihydro-4H-cyclopenta[b]thiophen-2-yl]-benzamide] | 9.11 | 37.2
CCN(CC)CCNCc1cccc(C(=O)Nc2sc3c(c2C(=O)N/N=C/c2ccc(F)cc2)CCC3)c1 [Compound 813, 3-[(2-Diethylamino-ethylamino)-methyl]-N-[3-(4-fluoro-benzylidene-hydrazinocarbonyl)-5,6-dihydro-4H-cyclopenta[b]thiophen-2-yl]-benzamide] | 6.25 | 35.6
CCN(CC)CCNCc1cccc(C(=O)Nc2sc3c(c2C(=O)N/N=C/c2ccc(Cl)c(C(F)(F)F)c2)CCC3)c1 [Compound 814, N-[3-(4-Chloro-3-trifluoromethyl-benzylidene-hydrazinocarbonyl)-5,6-dihydro-4H-cyclopenta[b]thiophen-2-yl]-3-[(2-diethylamino-ethylamino)-methyl]-benzamide] | < 3 | 18.3
O=C(Nc1sc2c(c1C(=O)N/N=C/c1ccc(F)cc1)CCC2)c1cccc(CN2CCC(CO)CC2)c1 [Compound 818, N-[3-(4-Fluoro-benzylidene-hydrazinocarbonyl)-5,6-dihydro-4H-cyclopenta[b]thiophen-2-yl]-3-(4-hydroxymethyl-piperidin-1-ylmethyl)-benzamide] | 7.38 | 31.4
Cc1ccc(/C=N/NC(=O)c2c(C)csc2NC(=O)c2cccc(CN(C)C)c2)cc1C [Compound 822, 3-Dimethylaminomethyl-N-[3-(3,4-dimethyl-benzylidene-hydrazinocarbonyl)-4-methyl-thiophen-2-yl]-benzamide] | 5.9 | 18
Cc1csc(NC(=O)c2cccc(CN(C)C)c2)c1C(=O)N/N=C/c1ccc(Cl)c(C(F)(F)F)c1 [Compound 824, N-[3-(4-Chloro-3-trifluoromethyl-benzylidene-hydrazinocarbonyl)-4-methyl-thiophen-2-yl]-3-dimethylaminomethyl-benzamide] | 3.22 | 8.19
Cc1ccc(/C=N/NC(=O)c2c(C)csc2NC(=O)c2cccc(CN3CCN(c4ncccn4)CC3)c2)cc1 [Compound 827, N-[4-Methyl-3-(4-methyl-benzylidene-hydrazinocarbonyl)-thiophen-2-yl]-3-(4-pyrimidin-2-yl-piperazin-1-ylmethyl)-benzamide] | 3.5 | 24.4
